# Experiments:
# [1] = target: T1, human progesterone receptor A (PR-A) (Homo sapiens, UniProt P06401); experiment: Progesterone receptor-antagonistic action in stable transfectants of SK-N-MC cells with human PR-A and MTV-LUC reporter; type: cell-based
# T1 construct: expressed in transfected cells; host or cells: SK-N-MC human neuroblastoma cells, stably transfected with pRChPR-A-neo and pMMTV-LUC
# T1 sequence (P06401 1-769 isoform P06401-2): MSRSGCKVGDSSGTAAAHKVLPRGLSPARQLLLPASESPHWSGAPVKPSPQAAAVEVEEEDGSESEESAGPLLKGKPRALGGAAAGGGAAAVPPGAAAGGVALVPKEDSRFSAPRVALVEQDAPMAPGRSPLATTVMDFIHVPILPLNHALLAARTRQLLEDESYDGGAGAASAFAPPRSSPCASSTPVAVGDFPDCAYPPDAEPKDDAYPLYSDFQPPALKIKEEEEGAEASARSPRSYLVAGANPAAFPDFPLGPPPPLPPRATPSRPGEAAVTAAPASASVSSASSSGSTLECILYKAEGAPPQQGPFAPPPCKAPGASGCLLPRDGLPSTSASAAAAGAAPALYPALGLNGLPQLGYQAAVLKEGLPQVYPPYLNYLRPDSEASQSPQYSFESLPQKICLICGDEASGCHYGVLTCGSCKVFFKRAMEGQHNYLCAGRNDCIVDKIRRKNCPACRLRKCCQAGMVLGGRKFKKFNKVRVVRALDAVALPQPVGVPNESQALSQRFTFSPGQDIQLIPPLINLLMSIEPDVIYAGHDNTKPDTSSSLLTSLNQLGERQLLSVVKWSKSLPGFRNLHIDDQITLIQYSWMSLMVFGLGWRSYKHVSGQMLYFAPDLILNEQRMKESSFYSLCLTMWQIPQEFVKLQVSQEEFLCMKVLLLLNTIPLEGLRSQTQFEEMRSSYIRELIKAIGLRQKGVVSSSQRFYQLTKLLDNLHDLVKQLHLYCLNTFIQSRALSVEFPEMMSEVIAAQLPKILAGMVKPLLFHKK
# Experimental: Progesterone Receptor-Antagonistic Action in Stable Transfectants of Human Neuroblastoma Cells (SK-N-MC Cells) with the Human Progesterone A or Progesterone B Receptor and an MTV-LUC Reporter Construct
# SK-N-MC cells (human neuroblastoma cells), which have been stably transfected with plasmids, which express the human progesterone receptor B (pRChPR-B-neo) or the human progesterone receptor A (pRChPR-A-neo) and a reporter construct (pMMTV-LUC), were incubated for 24 hours either in the absence (negative control) or in the presence of increasing amounts of the respective test compound (0.01 nmol/l, 0.1 nmol/l, 1 nmol/l, 10 nmol/l, 100 nmol/l and 1 μmol/l), in order to determine the agonistic efficacy. As positive control of reporter gene induction, the cells were treated with the synthetic gestagen promegestone (0.01 nmol/l, 0.1 nmol/l, 1 nmol/l, 10 nmol/l, 100 nmol/l and 1 μmol/l). For determination of the antagonistic activity, the cells were treated with 0.1 nmol/l promegestone and additionally with increasing amounts of the respective test compound (0.01 nmol/l, 0.1 nmol/l, 1 nmol/l, 10 nmol/l, 100 nmol/l and 1 μmol/l). The activity of the LUC reporter gene (LUC=luciferase) was determined in the cell lysates and was measured as RLU (relative light units). All measured values are given as percentage efficacy and as EC50 or IC50 concentrations.
# 11β-(4-Acetylphenyl)-20,20,21,21,21-pentafluoro-17-hydroxy-19-nor-17α-pregna-4,9-dien-3-one and 20,20,21,21,21-pentafluoro-17-hydroxy-11β-[4-(hydroxyacetyl)phenyl]-19-nor-17α-pregna-4,9-dien-3-one, very potent and therefore preferred examples from WO98/34947 and WO2008/058767, were tested as comparative compounds along with the test compound.
# [2] = Permeation in Caco-2 cells; type: in vitro ADME; conditions: human, Caco-2, 2 μM, 37° C., apical to basolateral
# Experimental: Permeation of (11β,17β)-17-hydroxy-11-[4-(methylsulphonyl)phenyl]-17-(pentafluoroethyl)estra-4,9-dien-3-one in Caco-2 Cells
# For the permeation studies, Caco-2 cells with a cell count of 300000 cells/ml were cultivated on Transwell Clear filter inserts (polyester; pore size 0.4 μm) in 12-well cell culture plates for at least 14 days in cell culture medium (1.5 ml) at 37° C., 5% CO2 and 95% air humidity. Before the test, to verify the “compactness” of the cell monolayer, the transepithelial resistance (TEER value) was determined, which must be greater than 300 Ωcm^2. Then the cell culture medium was replaced with hot transport buffer (0.5 ml apical, 1.5 ml basolateral) and the cells were equilibrated in it for 5 min. The permeability test was performed in duplicate at a substance concentration of 2 μM. At the start of the experiment, 100 μl (Ap0 min) was taken from the apical compartment and 100 μl of ice-cold stopping solution was added to it immediately. […] After further dilution of the samples with 4 times the volume of stopping solution/transport buffer (1+1) they were sedimented overnight at −20° C. and the supernatant was analysed by LCMS/MS. The Papp value of the substances was calculated from the following formula. […]
# [3] = test system: cardiovascular system; experiment: Action on the cardiovascular system (incl. ECG) of anaesthetized beagle dogs; type: in vivo; conditions: anaesthetized female beagle dogs, i.v. 0.1; 0.33 and 1 mg/kg, in comparison with the control
# Experimental: Investigation of the Action on the Cardiovascular System (Incl. ECG) of Anaesthetized Beagle Dogs
# (11β,17β)-17-Hydroxy-11-[4-(methylsulphonyl)phenyl]-17-(pentafluoroethyl)estra-4,9-dien-3-one, dissolved in a mixture of PEG 400 and HP-β-CD (60% PEG 400, 40% HP-β-CD 30%), was administered intravenously to anaesthetized female beagle dogs. The body weight of the dogs was >9 kg. 3 dogs were treated per group and additionally 3 dogs in the control group. 0.1; 0.33 and 1 mg/kg of the substance was administered in 3 consecutive infusions, in each case over a period of 30 minutes. The maximum amount of vehicle was 0.4 ml per kg for 30 minutes. Blood samples were taken from the animals at various time points. The highest plasma level (average for all 3 animals) was 1650 ng/ml at the end of the third infusion.
# [4] = test system: rodents and non-rodents; conditions: in vivo
compound,measurement,setting,value
"C[C@]12C[C@H](c3ccc(S(C)(=O)=O)cc3)C3=C4CCC(=O)C=C4CC[C@H]3[C@@H]1CC[C@@]2(O)C(F)(F)C(F)(F)F [Example 4, (11β,17β)-17-Hydroxy-11-[4-(methylsulphonyl)phenyl]-17-(pentafluoroethyl)estra-4,9-dien-3-one]",Emax,"[1]; SK-N-MC, 24 h, read-out: Progesterone receptor A (PR-A) Efficacy",100%
same,IC50,"[1]; antagonistic activity against 0.1 nmol/l promegestone, SK-N-MC cells, 24 hours, LUC reporter, read-out: Progesterone receptor A (PR-A) Potency IC50",0.096 nM
same,"Papp A→B at 90 min, 2 μM",[2],104 nm/s
same,"Effects on the cardiovascular system (pulmonary artery pressure, systemic arterial blood pressure, heart rate, ECG)",[3],no biologically relevant effects on the cardiovascular system
same,Safety profile (in acute and chronic tests),[4],especially favourable safety profile

# Reference: patent US8278469B2, “17-hydroxy-17-pentafluoroethyl-estra-4,9(10)-dien-11-aryl derivatives, method of production thereof and use thereof for the treatment of diseases” (Bayer Pharma Aktiengesellschaft, priority 2009, dated 2012)
